Data on seven molecules can be found in PubChem BioAssay (NCI).

Among the test systems are HCC-2998 colon; SF-268 CNS; NCI-H460 lung; U251 CNS; HCT-15 colon; COLO 205 colon; SK-MEL-28 melanoma; SN12C renal; HCT-116 colon; 786-0 renal.
Holding throughout (assay): growth of human tumour cells (NCI), 48 h

Where “and” joins values, the source holds several entries; their conditions need not be identical. Equal entries are not always repeated.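 Step 1: Grow cells in 96-well plates. Step 2: Expose to compound for 48 hours at 5 concentrations. Step 3: Interpolate endpoints linearly; if unreached, use highest concentration. GI50 = concentration required for 50% inhibition of growth. The concentration for full growth arrest is given as TGI.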 A value given as a limit tells only on which side of the number the result lay.

As for `NS(=O)(=O)c1ccc(N=Nc2c(O)[nH]c3ccc(C(=O)NCCCn4ccnc4)cc23)cc1`, the GI50 in the assay with HCC-2998 colon, with SF-268 CNS, with NCI-H460 lung, in the assay on U251 CNS, in the assay on HCT-15 colon and with COLO 205 colon was greater than 25 µM in each case. Besides, the GI50 with SK-MEL-28 melanoma, in the assay with SN12C renal, in the assay with HCT-116 colon and in the assay on 786-0 renal was greater than 25 µM each time. Besides, the TGI in the assay with HCC-2998 colon, in the assay on SF-268 CNS, with NCI-H460 lung, with U251 CNS, in the assay on HCT-15 colon and in the assay with COLO 205 colon was greater than 25 µM throughout. Besides, the TGI with SK-MEL-28 melanoma, in the assay on SN12C renal, with HCT-116 colon and with 786-0 renal was greater than 25 µM in each case.
With `Cc1ccc(C2=NN(c3ccc(S(=O)(=O)NC(=O)NCc4ccccc4)cc3)C(c3ccc(N(C)C)cc3)C2)c(C)c1` (configuration not stated), the GI50 in the assay on HCC-2998 colon was 2.45 µM; in the assay with SF-268 CNS, 4.37 µM; in the assay with NCI-H460 lung it was 3.33 µM; with U251 CNS, 3.53 µM; with HCT-15 colon, 3.27 µM; with COLO 205 colon it was 3.71 µM. For the same molecule, the GI50 is 2.36 µM in the assay with SK-MEL-28 melanoma, 3.35 µM in the assay on SN12C renal, 4 µM with HCT-116 colon and 4.37 µM in the assay on 786-0 renal. The TGI in the assay on HCC-2998 colon was 5.65 µM; with SF-268 CNS it was 45.1 µM; with NCI-H460 lung, 10.4 µM; in the assay on U251 CNS, 16 µM; in the assay with HCT-15 colon it was greater than 100 µM; in the assay with COLO 205 colon it was 10.4 µM. In addition, the TGI in the assay with SK-MEL-28 melanoma stood at 6.89 µM; in the assay with SN12C renal it was 61.5 µM; in the assay with HCT-116 colon it was 14.9 µM; in the assay on 786-0 renal it was 36.1 µM.
As for `NC(=O)c1c[nH]c2ncnc(N)c12`, the GI50 in the assay with HCC-2998 colon is 73 µM; in the assay with SF-268 CNS, 39.3 µM; in the assay with NCI-H460 lung it was 45.1 µM; with U251 CNS it was greater than 100 µM; with HCT-15 colon it was 41.8 µM; in the assay on COLO 205 colon, 27 µM. Besides, the GI50 was 58.8 µM in the assay with SK-MEL-28 melanoma, 71.6 µM in the assay on SN12C renal, 45.5 µM with HCT-116 colon and greater than 100 µM with 786-0 renal. Besides, the TGI in the assay on HCC-2998 colon, with SF-268 CNS, in the assay with NCI-H460 lung, in the assay with U251 CNS, with HCT-15 colon and in the assay with COLO 205 colon was greater than 100 µM throughout. In addition, the TGI in the assay on SK-MEL-28 melanoma, in the assay with SN12C renal, in the assay on HCT-116 colon and in the assay with 786-0 renal was greater than 100 µM throughout.
On to `CN1C(=O)C(N=Nc2ccc([N+](=O)[O-])cc2)SC1=S` (configuration not stated), for which the GI50 is 3.21 µM and 6.71 µM with HCC-2998 colon; 6.1 µM and 17.3 µM in the assay on SF-268 CNS; 2.98 µM and 5.43 µM in the assay on NCI-H460 lung; 3.3 µM and 7.63 µM with U251 CNS; 2.63 µM and 6.8 µM in the assay with HCT-15 colon; 4 µM and 10 µM in the assay with COLO 205 colon. In addition, the GI50 in the assay on SK-MEL-28 melanoma is 11.6 µM and 27.2 µM; with SN12C renal, 4.39 µM and 9.34 µM; with HCT-116 colon, 3.65 µM and 6.79 µM; in the assay on 786-0 renal, 8.12 µM and 10.7 µM. The TGI in the assay on HCC-2998 colon is 48.2 µM and 49.6 µM; with SF-268 CNS, 99.5 µM and > 100 µM; in the assay on NCI-H460 lung it was 24.9 µM and > 100 µM; in the assay on U251 CNS, 70.8 µM and > 100 µM; in the assay with HCT-15 colon, greater than 100 µM; with COLO 205 colon, 18 µM and 23 µM. The TGI with SK-MEL-28 melanoma was greater than 100 µM; in the assay with SN12C renal it was > 100 µM and 75.9 µM; in the assay with HCT-116 colon, 29 µM and 66.3 µM; in the assay on 786-0 renal it was 80 µM and 58.2 µM.
Take `CCN1C(=O)/C(=c2\sc3n(c2=O)C2C(NN=3)N(CC)C(=O)N2CC)c2ccccc21` (configuration not stated): the GI50 is 0.859 µM with HCC-2998 colon; 2.57 µM with SF-268 CNS; 0.402 µM in the assay with NCI-H460 lung; 0.577 µM in the assay on U251 CNS; 0.394 µM with HCT-15 colon; 0.468 µM with COLO 205 colon. Moreover, the GI50 with SK-MEL-28 melanoma was 0.907 µM; in the assay with SN12C renal, 0.615 µM; with HCT-116 colon it was 0.463 µM; in the assay on 786-0 renal it was 0.663 µM. For the same molecule, the TGI in the assay on HCC-2998 colon is greater than 76.8 µM; in the assay with SF-268 CNS it was greater than 100 µM; in the assay with NCI-H460 lung, greater than 100 µM; in the assay with U251 CNS it was 30.1 µM; in the assay on HCT-15 colon, greater than 100 µM; with COLO 205 colon it was 11.3 µM. The TGI is greater than 100 µM in the assay on SK-MEL-28 melanoma, greater than 100 µM with SN12C renal, greater than 54.3 µM in the assay on HCT-116 colon and 16.9 µM with 786-0 renal.
As for `COc1ccc(OC)c(C2=C(c3cn(C)c4ccccc34)C(=O)NC2=O)c1`, the GI50 in the assay with HCC-2998 colon was greater than 25 µM; with SF-268 CNS, greater than 25 µM; in the assay on NCI-H460 lung, greater than 25 µM; in the assay on U251 CNS, greater than 25 µM; in the assay on HCT-15 colon, greater than 23.9 µM; in the assay on COLO 205 colon it was greater than 25 µM. For the same molecule, the GI50 in the assay on SK-MEL-28 melanoma, in the assay on SN12C renal, in the assay with HCT-116 colon and in the assay with 786-0 renal was greater than 25 µM in each case. Further, the TGI in the assay on HCC-2998 colon, with SF-268 CNS, with NCI-H460 lung, in the assay on U251 CNS, in the assay on HCT-15 colon and in the assay with COLO 205 colon was greater than 25 µM each time. The TGI in the assay with SK-MEL-28 melanoma, with SN12C renal, in the assay on HCT-116 colon and in the assay on 786-0 renal was greater than 25 µM each time.
Take `CS(=O)(=O)Nc1cc(-c2ccc3ncc(C#N)c(Nc4ccc(F)c(Cl)c4)c3c2)cnc1Cl`: the GI50 with HCC-2998 colon was 0.382 µM; in the assay with SF-268 CNS it was 0.133 µM; with NCI-H460 lung, 0.301 µM; in the assay on U251 CNS, 0.098 µM; with HCT-15 colon, 0.167 µM; in the assay on COLO 205 colon it was 0.232 µM. Besides, the GI50 in the assay on SK-MEL-28 melanoma was 0.133 µM; in the assay on SN12C renal it was 0.133 µM; in the assay with HCT-116 colon, 0.0486 µM; in the assay with 786-0 renal, 0.256 µM. Also, the TGI in the assay with HCC-2998 colon was 1.55 µM; in the assay with NCI-H460 lung it was greater than 29.1 µM; with U251 CNS it was 1.19 µM; with HCT-15 colon it was 4.91 µM; in the assay on COLO 205 colon it was 0.943 µM; with SK-MEL-28 melanoma it was 1.47 µM. Besides, the TGI in the assay with SN12C renal was greater than 100 µM.
